From patent US20200131156A1, “ARYLSULFONYLPYROLECARBOXAMIDE DERIVATIVES AS Kv3 POTASSIUM CHANNEL ACTIVATORS” (H. Lundbeck A/S, priority 2018, published 2020)

Target: T1, human Kv3.4 (Homo sapiens, UniProt Q03721)
T1 construct: expressed in transfected cells
T1 sequence (Q03721 1-635): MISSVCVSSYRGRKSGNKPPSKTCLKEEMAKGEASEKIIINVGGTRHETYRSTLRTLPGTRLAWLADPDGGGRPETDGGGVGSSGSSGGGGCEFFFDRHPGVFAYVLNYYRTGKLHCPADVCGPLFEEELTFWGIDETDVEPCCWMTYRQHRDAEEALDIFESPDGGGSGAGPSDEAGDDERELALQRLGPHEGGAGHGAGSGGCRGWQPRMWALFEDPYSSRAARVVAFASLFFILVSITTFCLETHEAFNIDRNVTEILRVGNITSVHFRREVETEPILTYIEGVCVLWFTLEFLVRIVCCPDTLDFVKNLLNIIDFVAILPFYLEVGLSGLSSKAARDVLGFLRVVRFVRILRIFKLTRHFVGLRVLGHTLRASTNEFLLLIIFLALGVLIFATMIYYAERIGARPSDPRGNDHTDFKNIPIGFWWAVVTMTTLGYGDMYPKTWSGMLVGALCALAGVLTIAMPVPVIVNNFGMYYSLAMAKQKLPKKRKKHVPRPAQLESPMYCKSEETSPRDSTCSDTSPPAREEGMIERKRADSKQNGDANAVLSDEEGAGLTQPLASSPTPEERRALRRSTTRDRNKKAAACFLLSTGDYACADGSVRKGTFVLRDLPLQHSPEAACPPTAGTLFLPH
Assay: Manual patch clamp electrophysiology, HEK-293 cells stably expressing human Kv3.4
Type: cell-based
Conditions: for hKv3.4 ECΔ30% increase: concentration increasing current by 30% at the −10 mV step; for hKv3.4 ECΔ5 mV: concentration that shifts activation threshold by 5 mV
Protocol: Manual Patch Clamp Electrophysiological Evaluation, hKv3.1, hKv3.2, hKv3.3, hKv3.4:
HEK-293 cells stably expressing human Kv3.1b, Kv3.2, Kv3.3 or Kv3.4 were used for the experiments.
Kv3.1b, Kv3.2: Cells were cultured in MEM medium supplemented with 10% Fetal Bovine Serum, 1% Penicillin/Streptomycin, 2 mM glutamine and 0.6 mg/mL geneticin. Cells were grown to 80-90% confluency at 37° C. and 5% CO2 Kv3.3 or Kv3.4: Cells were cultured in DMEM medium supplemented with 10% Fetal Bovine Serum, 500 ug/mL Geneticidin and 1% Penicillin/Streptomycin. Cells were grown to 80-90% confluency at 37° C. and 5% CO2.
On the day of the experiment the cells were detached by TrypLE and resuspended in culture medium. Cells were centrifuged, media removed and the cells were resuspended in extracellular buffer containing (in mM): 130 Na-gluconate, 20 NaCl, 4 KCl, 1 MgCl2, 1.8 CaCl2, 10 HEPES and 5 glucose, pH 7.3 adjusted with NaOH, 310-320 mOsm
Patch-clamp recordings were performed using a manual patch-clamp system (Axon Multiclamp 700B, Digidata 1440, pCLAMP 10, Molecular Devices Corporation) with a fast perfusion system (RSC-160 Rapid solution Changer, BioLogic). Whole-cell recordings were carried out using an intracellular solution containing (in mM): 100 K-gluconate, 40 KCl, 10 HEPES, 1 EGTA, 1 MgCl2, pH 7.2 adjusted with KOH, 290-300 mOsm. Cell membrane potentials were held at −80 mV and current voltage-relationship was generated by voltage steps (50 ms duration) from −100 mV to +10 mV (in 10 mV increments) and then back to −100 mV for 50 ms, with inter-sweep interval of 3 s. The peak current amplitude of −10 mV was monitored until stable (<5% change) by using one step voltage protocol. One IV protocol was run as baseline, then compound perfusion was stared and peak current stability was monitored with single step protocol prior to the IV protocol. Single concentrations were measured per cell. Acceptable cells had seal resistance >500 MOhm, Access resistance <10 MOhm, and leak current <200 pA.
Data analysis was performed using Clampfit (V10.2) in combination with Microsoft Excel™ (Redmond, Wash., USA). Current voltage relationships were plotted from the peak current (baseline subtracted) at the individual voltage steps normalized to the vehicle addition at 10 mV. The voltage threshold for channel activation was defined as 5% activation of the peak current at 10 mV in presence of vehicle. […] The concentration needed to shift the threshold 5 mV was readout from this curve (ECΔ5 mV), as well as the ability to increase the peak current at the −10 mV step (EC30% increase). […]

Row | SMILES | hKv3.4 ECΔ30% increase | hKv3.4 ECΔ5 mV
1 | Cc1cnc(CNC(=O)c2ccn(S(=O)(=O)c3ccc(F)cc3C)c2)cn1 [Compound 90, 1-(4-fluoro-2-methylbenzene-1-sulfonyl)-N-[(5-methylpyrazin-2-yl)methyl]-1H-pyrrole-3-carboxamide] | >30 µM | >30 µM
2 | Cc1ccc(S(=O)(=O)n2ccc(C(=O)NCc3ncco3)c2)cc1 [Compound 86, 1-(4-methylbenzene-1-sulfonyl)-N-[(1,3-oxazol-2-yl)methyl]-1H-pyrrole-3-carboxamide] | >30 µM | 14.4 µM
